Earlier results in US20220162327A1, “ANTI-CCR5 AGENTS AND METHODS OF TREATMENT THAT BLOCK CANCER METASTASIS OR ENHANCE CELL DEATH INDUCED BY DNA DAMAGING CHEMOTHERAPY” (CytoDyn Inc., priority 2019, published 2022).

Experiments:
CCR5 [1] = target: T1, CCR5 (Homo sapiens, UniProt P51681); parameters: endogenous in cells; host or cells: CD4+ T cells; settings: cited from earlier work
CCR5 [2] = target: T1, CCR5; settings: activated human T cells, cited from earlier work
CCL5 = settings: human colorectal cancer liver metastasis; cited from earlier work
[3] = tested on: breast cancer tumor model; settings: cited from earlier work

T1 sequence (P51681 whole entry): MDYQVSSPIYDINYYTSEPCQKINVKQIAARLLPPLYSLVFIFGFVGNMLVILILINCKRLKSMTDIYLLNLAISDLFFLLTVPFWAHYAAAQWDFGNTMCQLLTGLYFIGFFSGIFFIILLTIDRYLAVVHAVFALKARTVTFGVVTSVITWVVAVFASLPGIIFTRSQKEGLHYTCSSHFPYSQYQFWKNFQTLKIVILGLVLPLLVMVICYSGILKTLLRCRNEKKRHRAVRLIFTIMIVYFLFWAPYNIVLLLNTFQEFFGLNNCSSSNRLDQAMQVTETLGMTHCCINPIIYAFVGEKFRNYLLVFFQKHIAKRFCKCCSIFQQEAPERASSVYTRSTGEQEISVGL

Row | Compound | cell killing mediated by DNA-damaging chemotherapeutic agents (CCR5 [1]) | production of TNF-α and IFN-γ (CCR5 [2]; high doses) | CCR5 and CCR2 internalization induced by CCL5 and CCL2 (CCR5 [2]) | T cell chemotactic activities toward cognate ligands (CCR5 [2]) | effect on tumor-associated macrophages and tumor cells (CCL5) | lung metastases [3]
1 | COC[C@@H](c1ccc(C(F)(F)F)cc1)N1CCN(C2(C)CCN(C(=O)c3c(C)ncnc3C)CC2)C[C@@H]1C [vicriviroc] | dramatically enhanced cell killing | – | – | – | – | –
2 | maraviroc | dramatically enhanced cell killing | tends to decrease production of TNF-α and IFN-γ | can block CCR5 and CCR2 internalization processes induced by CCL5 and CCL2 | inhibit T cell chemotactic activities | led to repolarization of tumor-associated macrophages and tumor cell death | effectively blocked lung metastases
